According to patent US20250042862A1, “AROMATIC HETEROCYCLIC COMPOUND AND APPLICATION THEREOF” (Shanghai Institute of Materia Medica, Chinese Academy of …, priority 2021, published 2025):

Legend:
[1] = target: human recombinant LSD1 protein (Homo sapiens (Human), UniProt O60341); experiment: In vitro enzyme inhibition activity assay - LSD1 (Lance Ultra TR-FRET); type: biochemical; conditions: all compounds tested in the form of hydrochloride
Method: The purpose of this experiment was to test the in vitro inhibitory activity of the compounds against LSD1. The human recombinant LSD1 protein used in the experiment was purchased from Active Motif, and the enzyme level activity testing assay of LSD1 was performed using the Lance Ultra LSD1 Histone H3 Lysine 4 Demethylase Assay Kit (PerkinElmer). Tris-buffer (50 mMTris-HCl, 50 mMNaCl, 0.01% Tween-20, 1 mM DTT, 10 μM FAD, 10% glycerol, pH 9.0) was first prepared, and after preparation, the LSD1 fractions required for test were placed in this buffer and incubated for one hour at room temperature; the fractions included 4 μL of substrate solution ([…] Bio-H3K4me2, 1-24aa), 4 μL of enzyme solution (4 nM LSD1), and 2 μL of inhibitor in a 384-well microplate. After these operations, another 5 μL of assay mixture containing Eu-labeled H3K4me0 antibody and ULight-Streptavidin anti-biotin protein was added to the system, after which the fluorescence intensity of the components to be tested was detected by using Envision (PerkinElmer) in TR-FRET mode (excitation wavelength of 320 nm, emission wavelength of 620 nm). The test was repeated a total of three times to minimize errors. The final IC50 data were calculated by the software GraphPad Prism 5, and finally the sigmoidal dose-response (variable slope) method was used to obtain the fitted curve.
The LSD1 inhibitory activities of representative compounds of the present application as well as the positive control compound CC90011 were provided in Table 2. All compounds were tested in the form of hydrochloride.

[2] = test system: MV4-11 cell line transplanted tumor; experiment: In vivo efficacy evaluation in mouse transplanted tumor model; set-up: species or system mouse (female NU/NU nude mice); conditions: MV4-11 xenograft in NU/NU nude mice; 20 mg/kg by gavage every day for 21 days
Method: Experimental purpose: To test the in vivo efficacy of compounds in mouse transplanted tumor model Experimental materials: female NU/NU nude mice, MV4-11 cell line Experimental methods: female NU/NU nude mice, weighing 20±2 g, were inoculated with MV4-11 cell line in the right axillary subcutaneous with a cell inoculation amount of 5×10^6/mouse. When the tumor formed, the diameter of the transplanted tumor was measured with vernier calipers, and the tumor was grew up to 100-300 mm^3; the animals were divided into model control group and administration group according to their weights and tumor volumes, with 6 animals per group. The administration group was administered with a suspension ground with 0.5% CMC-Na, while the model control group was given an equal amount of blank solvent. After grouping, the drug was administered orally every day at a dose of 20 mg/kg for 21 days. During the experiment, the diameter of the transplanted tumor was measured and the weight of the mice was weighed twice a week, and the tumor tissues were taken from the animal after euthanasia on the 21st day. […]

IC50 [1] [nM]	SMILES	relative tumor proliferation rate T/C [2]
≤ 30	N#Cc1ccc(-c2nc(N3CCC[C@@H](N)CC3)nc3ccc(-c4c(F)cccc4C(F)(F)F)cc23)cc1F (stereo in doubt) [Compound 89, 4-(2-(4-aminoazepan-1-yl)-6-(2-fluoro-6-(trifluoromethyl)phenyl)quinazolin-4-yl)-2-fluorobenzonitrile]	less than 50%
≤ 30	N#Cc1ccc(-c2nc(N3CCC(N)CC3)nc3ccc(-c4c(F)cccc4C(F)(F)F)cc23)cc1F [Compound 19, 4-(2-(4-aminopiperidin-1-yl)-6-(2-fluoro-6-(trifluoromethyl)phenyl)quinazolin-4-yl)-2-fluorobenzonitrile]	less than 50%
30 to 300	N#Cc1ccc(-c2nc(NC[C@H]3CCNC3)nc3ccc(-c4c(F)cccc4F)cc23)cc1F [Compound 50, (S)-4-(6-(2,6-difluorophenyl)-2-((pyrrolidin-3-ylmethyl)amino)quinazolin-4-yl)-2-fluorobenzonitrile]	–
≤ 30	N#Cc1ccc(-c2nc(NC[C@H]3CCNC3)nc3ccc(-c4c(F)cccc4C(F)(F)F)cc23)cc1F [Compound 54, (S)-4-(6-(2-fluoro-6-(trifluoromethylphenyl)-2-(pyrrolidin-3-ylmethyl)amino)quinazolin-4-yl)-2-fluorobenzonitrile]	–
≤ 30	N#Cc1ccc(-c2nc(N3CCC(N)CC3)nc3ccc(-c4cccc(F)c4C(F)(F)F)cc23)cc1F [Compound 23, 4-(2-(4-Aminopiperidin-1-yl)-6-(3-fluoro-2-(trifluoromethyl)phenyl)quinazolin-4-yl)-2-fluorobenzonitrile]	–
≤ 30	N#Cc1ccc(-c2nc(NC[C@H]3CCNC3)nc3ccc(-c4c(Cl)cccc4Cl)cc23)cc1F [Compound 51, (S)-4-(6-(2,6-dichlorophenyl)-2-((pyrrolidin-3-ylmethyl)amino)quinazolin-4-yl)-2-fluorobenzonitrile]	–
≤ 30	N#Cc1ccc(-c2nc(N3CCC(N)CC3)nc3ccc(-c4ccccc4Cl)cc23)cc1F [Compound 16, 4-(2-(4-aminopiperidin-1-yl)-6-(2-chlorophenyl)quinazolin-4-yl)-2-fluorobenzonitrile]	–
≤ 30	Cc1cccc(C)c1-c1ccc2nc(NC[C@H]3CCNC3)nc(-c3ccc(C#N)c(F)c3)c2c1 [Compound 45, (S)-4-(6-(2,6-dimethylphenyl)-2-((pyrrolidin-3-ylmethyl)amino)quinazolin-4-yl)-2-fluorobenzonitrile]	–
≤ 30	N#Cc1ccc(-c2nc(N3CCC(N)CC3)cc3ccc(-c4c(F)cccc4C(F)(F)F)cc23)cc1F [Compound 98, 4-(3-(4-Aminopiperidin-1-yl)-7-(2-fluoro-6-(trifluoromethyl)phenyl)isoquinolin-1-yl)-2-fluorobenzonitrile]	–
≤ 30	N#Cc1ccc(-c2nc(N3CCC(N)CC3)nc3ccc(-c4ccccc4C(F)(F)F)cc23)cc1F [Compound 14, 4-(2-(4-aminopiperidin-1-yl)-6-(2-(trifluoromethyl)phenyl)quinazolin-4-yl)-2-fluorobenzonitrile]	–
≤ 30	Cc1cccc(F)c1-c1ccc2nc(NC[C@H]3CCNC3)nc(-c3ccc(C#N)c(F)c3)c2c1 [Compound 48, (S)-2-fluoro-4-(6-(2-fluoro-6-methylphenyl)-2-((pyrrolidin-3-ylmethyl)amino)quinazolin-4-yl)benzonitrile]	–
≤ 30	Cc1cc(C)c(-c2ccc3nc(NC[C@H]4CCNC4)nc(-c4ccc(C#N)c(F)c4)c3c2)c(C)c1 [Compound 46, (S)-4-(6-(2,4,6-trimethylphenyl)-2-((pyrrolidin-3-ylmethyl)amino)quinazolin-4-yl)-2-fluorobenzonitrile]	–
≤ 30	Cc1ccccc1-c1ccc2nc(NCC3CCNC3)nc(-c3ccc(C#N)c(F)c3)c2c1 (centres unmarked) [Compound 34, 2-Fluoro-4-(2-((pyrrolidin-3-ylmethyl)amino)-6-(o-methylphenyl)quinazolin-4-yl)benzonitrile]	–
≤ 30	N#Cc1ccc(-c2nc(N3CCC4NCCC4C3)nc3ccc(-c4c(F)cccc4C(F)(F)F)cc23)cc1F (centres unmarked) [Compound 76, 2-Fluoro-4-(6-(2-fluoro-6-(trifluoromethyl)phenyl)-2-(octahydro-5H-pyrrolo[3,2-c]pyridin-5-yl)quinazolin-4-yl)benzonitrile]	–

SMILES	IC50 [1] [nM]	relative tumor proliferation rate T/C [2]
N#Cc1ccc(-c2nc(N3C4CCC3CC(N)C4)nc3ccc(-c4c(F)cccc4C(F)(F)F)cc23)cc1F (centres unmarked) [Compound 69, 4-(2-(3-amino-8-azabicyclo[3.2.1]octan-8-yl)-6-(2-fluoro-6-(trifluoromethyl)phenyl)quinazolin-4-yl)-2-fluorobenzonitrile]	≤ 30	–
